Consider 1 molecule from patent publication US4101669A (priority 1977, dated 1978).

Data set [1] can be described thus: Example 1: stability of active ingredient at 300 ppm in severe test waters, assay after 4 hours at room temperature. Type of data set: physicochemical. Conditions: for pH: after 4 hours at room temperature; for assay (as percent of original): 4 hours, room temperature. The procedure:
The stability of the active ingredient formulated as above is compared with that of the pure technical material at 300 ppm in:
(a) a basic, soda-ash softened water of initial pH 10.2 with 0.66 × 10^-3 N basicity, primarily as carbonate, and
(b) a strong "sodium bicarbonate" water (prepared to match a Montana well water) with pH 8.8 and 13 × 10^-3 N basicity.
After 4 hours at room temperature in these severe test waters, the following pH readings and assays (as percent of original) were obtained.

A short description of data set [2]: Example 2: stability of substituted acetamide in mixtures with commercial fungicides, 4 hour assay and 1-4 hour pH range. Format: physicochemical. The conditions noted are these: particularly in basic water. The procedure:
is prepared by blending and hammer milling.
(b) 2-cyano-N-ethylcarbamoyl-2-methoxyiminoacetamide is finely ground.
The materials above are mixed with the following commercial fungicides in a ratio to provide 1 part of active compound of (a) or (b) with the indicated parts of commodity listed:
The mixtures are then added to distilled water in one case and 4.7 × 10^-3 N sodium bicarbonate (chosen to represent rather alkaline water) in the other case, at a rate to provide about 150 ppm of substituted acetamide. After 4 hours, the suspensions are assayed to determine the present substituted acetamide remaining. The pH during the 1-4 hour period is also recorded.

In the case of `CCNC(=O)NC(=O)C(C#N)=NOC` [pure compound, 2-cyano-N-ethylcarbamoyl-2-methoxyiminoacetamide], the pH in data set [1] (water a)) is 7.7; in data set [1] (water b)), 8.2. Also, the “assay (as percent of original)” value in data set [1] (water a): soda-ash softened, initial pH 10.2, 0.66 × 10^-3 N basicity) is 43% of original; in data set [1] (water b): strong sodium bicarbonate water, pH 8.8, 13 × 10^-3 N basicity) it was 16% of original. For the same molecule, the “effect of acidulant on stability in mixtures with commercial fungicides” value in data set [2] is listed as “the acidulant improves stability”.
